Measurements published in paper PMC11433764, “A Novel Compound from the Phenylsulfonylpiperazine Class: Evaluation of In Vitro Activity on Luminal Breast Cancer Cells” (Molecules, 2024).
pIC50: −log10 of the molar value.

Columns and labels:
ENTPD2 = test: qPCR, ENTPD2 expression in MCF7; type: cell-based; settings: vs untreated cells
Experimental: (§1) Total RNA was extracted using Trizol reagent (Invitrogen), according to the manufacturer’s protocol. The quality of extracted RNA was verified by the spectrophotometric readings at 260 and 280 nm (Nanodrop 1000-ThermoFisher), and the first strand of cDNA was synthesized from 1 µg of total RNA via reverse transcription using GoScript™ Reverse Transcription Mix (Promega, Madison, WI, EUA). qPCR analysis was performed using 5.0 μL of Power SYBR Green PCR Master Mix (Applied Biosystems, Carlsbad, CA, USA) and run on a StepOnePlus Systems (Applied Biosystems, Carlsbad, CA, USA) device with the following cycling parameters: 40 cycles of 95 °C for 10 s and 60 °C for 30 s. The comparative Cq was used to find the relative expression of CDH1 (E-caderina), ENTPD1 (ectonucleoside triphosphate diphosphohydrolase 1), ENTPD2 (ectonucleoside triphosphate diphosphohydrolase 2), ENTPD3 (ectonucleoside triphosphate diphosphohydrolase 3), ENTPD5 ([…]) and KRT10 (keratin 10) genes, after relative standard curve optimization. β-2-microglobulin (β2M) was used as a reference gene. The primer sequences are described in Table 3.

CDH1 = test: qPCR, CDH1 expression in MCF7; type: cell-based; settings: vs untreated cells
Experimental: as §1

MCF7 [1] = test: Wound-healing migration assay; type: cell-based
Experimental: Wound-healing analysis was applied to test cell migration ability. MCF7 cells were seeded in a 6-well plate at a density of 1 × 10^6 cells/well and, after confluence, a “wound” in the monolayer was introduced by a sterilized 200 μL pipet tip. Cells were washed with PBS and treated with compound 3 (1.125, 2.25 and 4.5 µM) for 24 or 48 h in a serum-free medium. Cells were photographed at 0 h, 24 or 48 h under a light microscope (Evos®, ThermoFisher Scientific, Waltham, MA, USA) at 10× objective using the same randomly chosen fields. The cell-free area was measured by ImageJ v. 1.54 g software and migration in the control well was considered to be 100%.

[2] = ABTS radical scavenging assay; settings: 40 µM (greatest activity among 10, 20, 40, 80 and 160 µM)
Experimental: The ABTS^+ radical cation scavenging efficacy for compound 3 was determined according to the method described earlier with some modifications. Briefly, an equal amount of 7 mM ABTS^+ (2,20-azino-bis(3-ethylbenzothiazoline-6-sulfonic acid)) stock solution was mixed and kept in the dark at room temperature for 12 h with a 140 mM potassium persulfate stock solution. The ABTS^+ was then diluted in ethanol until it reached a UV absorption value of 0.700 (±0.200) at 734 nm. Compound 3 (10, 20, 40, 80 and 160 µM) was mixed with ABTS^+ in 96-well plates, and absorbance was read at 415 nm using a microplate reader (Thermo Plate TP-Reader, ThermoFisher Scientific, Waltham, MA, USA). The scavenging capability of ABTS^+ radical was expressed as Trolox (0.1 to 2 mM) equivalents.

ENTPD5 = test: qPCR, ENTPD5 expression in MCF7; type: cell-based; settings: vs untreated cells
Experimental: as §1

MCF7 [3] = test: MTT cell viability, MCF7; type: cell-based; settings: Homo sapiens, MCF7; 48 h, MTT, 1.25–160 μM; read-out: IC50 MCF7
Experimental: Four different breast cells lines were used in this study: MCF-10A (non-tumorigenic), MCF7 (ER+ BC), MDA-MB453 (HER2+ BC) and MDA-MB231 (TNBC). All lineages were obtained from the American Type Culture Collection (ATCC; Manassas, VA, USA) and maintained at a temperature of 37 °C according to the supplier’s recommendations. Only MDA-MB231 cells were not kept in an atmosphere of 5% CO2. MCF-10A was grown in Dulbecco’s Modified Eagle’s Medium (DMEM F12, Gibco, ThermoFisher Scientific, Waltham, MA, USA) supplemented with 20 ng/mL epidermal growth factor (Gibco, ThermoFisher Scientific, Waltham, MA, USA), 0.5 μg/mL hydrocortisone (Sigma-Aldrich, Sigma-Aldrich, St. Louis, MO, USA) and 10 μg/mL insulin (Gibco, ThermoFisher Scientific, Waltham, MA, USA). MCF7 was cultivated in Roswell Park Memorial Institute Medium (RPMI-1640, Gibco, ThermoFisher Scientific, Waltham, MA, USA), MDA-MB453 in IMDM and MDA-MB231 in Leibovitz’s medium (L-15, Gibco, ThermoFisher Scientific, Waltham, MA, USA). All media were supplemented with 10% fetal bovine serum (FBS, Gibco, ThermoFisher Scientific, Waltham, MA, USA) and 50 µg/mL of gentamicin (Cultilab, Campinas, SP, Brazil). The cells were confirmed to be free of mycoplasma and passaged using a 0.25% trypsin-EDTA solution when confluency reached 80–90%.
Cell viability was determined by spectrophotometric quantification of MTT (3-[4,5-dimethyl-thiazol-2-yl]-2,5-diphenyltetrazolium bromide—Invitrogen. Waltham, MA, USA) reduction to formazan crystals. Cells were seeded at the density of 1 × 10^4 cells/well (MCF-10A, MDA-MB453), 1.5 × 10^4 cells/well (MDA-MB231) and 3 × 10^3 cells/well (MCF7) in 96-well culture dishes and incubated with different concentrations of the compounds (1.25, 2.5, 5, 10, 20, 40, 80 and 160 µM) for 48 h. The medium was than replaced by MTT solution (0.5 mg/mL) and plates were kept at 37 °C for 4 h. After the aspiration of the media, the formazan crystals were diluted with 100 μL of dimethyl-sulfoxide (DMSO)/well and the absorbance at 570 nm was measured using a spectrophotometer (Thermo Plate TP-Reader, Waltham, MA, USA). Cytotoxicity was calculated using the following formula: Cytotoxicity (%) = [absorbance of cells treated with the compounds/absorbance of cells treated with DMSO) × 100]. The IC50 was determined for each compound and was defined as the concentration required to inhibit 50% of cell growth, compared to the control sample (cells treated with DMSO 0.05%).
Data were presented as the mean ± standard deviation (SD) and analyzed using GraphPad Prism 9.0 software (GraphPad Software Inc., La Jolla, CA, USA). All data were assayed in triplicate. Statistical analysis was performed using one-way ANOVA, Tukey´s HSD post hoc test and Student’s t-test. The IC50 was calculated using non-linear regression and the selectivity index (SI) was calculated by the ratio between the IC50 values corresponding to the non-tumor cell lineage (MCF-10A) and the IC50 values corresponding to the BC cell lines. Statistical significance was accepted at p values < 0.05.

ENTPD3 = test: qPCR, ENTPD3 expression in MCF7; type: cell-based; settings: vs untreated cells
Experimental: as §1

Q: Which results are given for `O=C(c1ccc(-n2cnnn2)cc1)N1CCN(S(=O)(=O)c2ccc(Cl)cc2)CC1` [Compound 3, (4-(1H-tetrazol-1-yl)phenyl)(4-((4-chlorophenyl)sulfonyl)piperazin-1-yl)methanone]?
A: Fold Change ENTPD2 mRNA (ENTPD2; MCF7, 1.125 µM): 1.374; Fold Change ENTPD2 mRNA (ENTPD2; MCF7, 2.25 µM): 1.417; Fold Change ENTPD2 mRNA (ENTPD2; MCF7, 4.5 µM): 1.109; Fold Change CDH1 mRNA (CDH1; MCF7, 1.125 µM): 1.874; Fold Change CDH1 mRNA (CDH1; MCF7, 2.25 µM): 1.045; Migration of MCF7 cells (MCF7 [1]; 1.13, 2.25 and 4.50 µM, 48 h): significantly inhibited; Migration of MCF7 cells (MCF7 [1]; 2.25 and 4.50 µM, 24 h): significantly inhibited; ABTS inhibition of free radicals [2]: 40%; Fold Change ENTPD5 mRNA (ENTPD5; MCF7, 1.125 µM): 2.046; Fold Change ENTPD5 mRNA (ENTPD5; MCF7, 2.25 µM): 1.437; Fold Change ENTPD5 mRNA (ENTPD5; MCF7, 4.5 µM): 1.306; pIC50 (MCF7 [3]): 5.35; Fold Change ENTPD3 mRNA (ENTPD3; MCF7, 1.125 µM): 1.641; Fold Change ENTPD3 mRNA (ENTPD3; MCF7, 2.25 µM): 1.074; Fold Change ENTPD3 mRNA (ENTPD3; MCF7, 4.5 µM): 1.229
